According to patent publication US8785451B2, “Compounds for the treatment of proliferative disorders” (Synta Pharmaceuticals Corp., priority 2006, dated 2014):

Tested on: inducible human Hsp70
Assay: Hsp70 RNA induction by quantitative PCR analysis
Type: cell-based
Details: Ramos B cells, 500 nM compound, 6 hours, Hsp70 RNA relative to gapdh; for fold induction at 0.5 µM: Homo sapiens, read-out: fold induction over DMSO; for % induction relative to Compound X: Compound X set to 100%
Description: The ability of the compounds of the invention to induce Hsp70 RNA induction by quantitative PCR analysis was examined. Ramos B cells were treated with 500 nM each compound for 6 hours and the RNA was isolated from the cells. Quantitative PCR was performed as described below:
Details for Quantitative PCR are as follows:
500 ng of RNA from each sample was used for cDNA synthesis using iScript cDNA Synthesis Kit (Biorad, Cat#170-8891). 1 ul of cDNA mixture was used with the iQ SYBR Green Supermix (Biorad, Cat#170-8882) to perform quantitative PCR in an iCycler machine (Biorad) using standard protocols. QPCR for each sample/time point was performed in duplicate. The following primers for inducible human Hsp70 and gapdh were used: […]
Ct values were obtained from the iCycler program and used in an equation (2^−ΔΔCT) for determining the amount of target relative to gapdh expression. This compares the relative expression of Hsp70 to the corresponding levels of gapdh in each sample. Duplicate wells were averaged. The amount of N-Malonyl-bis(N′-methyl-N′ thiobenzoylhydrazide) (Compound X) induction of Hsp70 was set to 100% and the percent of induction of Hsp70 by the compounds of the invention was determined relative to 100%.

Structure (SMILES) | fold induction at 0.5 µM | % induction relative to Compound X [%]
CN(/N=C1\CCC/C(=N\N(C)C(=S)c2ccccc2)C1)C(=S)c1ccccc1 [Compound 22, (N′,N″E,N′,N″E)-N′,N″-(cyclohexane-1,3-diylidene)bis(N-methylbenzothiohydrazide)] | 0.16 | 0.06
CN(/N=C/c1cccc(/C=N/N(C)C(=S)c2ccccc2)n1)C(=S)c1ccccc1 [Compound 16, (N′,N″E,N′,N″E)-N′,N″-(pyridine-2,6-diylbis(methan-1-yl-1-ylidene))bis(N-methylbenzothiohydrazide)] | 0.48 | 0.18
CN(/N=C/c1cccc(/C=N/N(C)C(=S)c2ccccc2)c1)C(=S)c1ccccc1 [Compound 17, (N′,N″E,N′,N″E)-N′,N″-(1,3-phenylenebis(methan-1-yl-1-ylidene))bis(N-methylbenzothiohydrazide)] | 0.54 | 0.20
